These results are taken from US11518779B2, “Inhibitors of DNMT1 as anticancer therapeutic agents” (Victoria Link Limited, priority 2018, dated 2022).

One may read the IC50 as the concentration that inhibits the measured activity by half.

In this test the target is DNMT1 (Homo sapiens, UniProt P26358). The test is described as follows: DNMT1 inhibition assay (transfer of radioactivity from [Me-3H]-SAM to hemimethylated double-stranded DNA). In kind it is biochemical. The note with it: 100 nM DNMT1, 1 μM [Me-3H]-SAM, 1 μM 26 bp hemimethylated DNA substrate, 37° C., 2 hours. The source says:
Human DNMT1 C-terminal catalytic domain gene was codon-optimised for E. coli by DNA2.0. The gene was cloned into the pD431-SR vector, KanR resistance, inducible by IPTG. The codon-optimisation gave yields 5 to 10 times greater than previously published reports (e.g. Song, J., Rechkoblit, O., Bestor, T. H., and Patel, D. J., (2011) Science 331(6020): 1036-1040; and Song, 3., Teplova, M., Ishibe-Murakami, S., and Patel, D. J., (2012) Science 335(6069): 709-712). The protein construct has N-terminal His-tag, a SUMO tag, a SUMO protease cleavage site, and the DNMT-catalytic domain.
DNMT1 inhibitors were assayed by measuring the transfer of radioactivity from tritiated S-adenosylmethionine (SAM) to double-stranded DNA (Du, Q., Z. Wang, Z., and Schramm, V. L., Proc. Natl. Acad. Sci. USA, 2016, 113, 2916-2921). The double stranded DNA molecule contains exactly one hemimethylated CpG located in the centre of the sequence. The design allows one methylation occurrence per DNA molecule, preventing any processive methylation along or across the strand.
[Me-^3H] S-Adenosyl methionine ([Me-^3H]-SAM) was enzymatically synthesized using bacterial chlorinase (SaIL) enzyme (Nat Chem Biol. 2008 Jan.; 4 (1):69-74. Epub 2007 Dec. 2. Discovery and characterization of a marine bacterial SAM-dependent chlorinase. Eustáquio AS^1, Pojer F, Noel J P, Moore B S.), starting from 5′-Chloro-5′-deoxyadenosine and L-[Methyl-^3H]-Methionine (Org Biomol Chem. 2016 Jul. 14; 14(26):6189-92. doi: 10.1039/c6ob00844e. Epub 2016 Jun. 6. Chemoenzymatic synthesis and utilization of a SAM analog with an isomorphic nucleobase. Vranken C^1, Fin A, Tufar P, Hofkens J, Burkart M D, Tor Y.). A reaction (500 μL) containing 500 μCi L-[Methyl-3H]-Methionine (PerkinElmer), 0.3 mM unlabeled methionine, 1 mM 5′-Chloro-5′-deoxyadenosine, 50 mM phosphate buffer pH 7.6 and 20 μM SaIL enzyme was incubated at room temperature. After 2 hours of incubation, reaction was stopped using 50 mM sulfuric acid. The [Me-^3H]-SAM was purified using C-18 reverse-phase HPLC using a gradient (buffer A: 50 mM ammonium acetate pH 4.3; buffer B: 0.1% acetic acid and 50% acetonitrile). The fractions containing [Me-^3H]-SAM were pooled and lyophilized overnight. Purified [Me-^3H]-SAM was always kept frozen at −80° C. until further use.
The DNMT1 assays were carried to determine the IC50 with transition state analogs. The reaction (100 μL) containing 50 mM Tris-HCl pH 8.0, 100 mM KCl, 50 ug/mL BSA, 2 mM DTT, 1 μM freshly prepared [Me-3H]-SAM, 1 μM 26 bp hemimethylated DNA substrate and varying concentrations of each inhibitor ([…]), incubated at 37° C. with 100 nM DNMT1. The reaction fractions (50 μL) were taken at 2 hours. The methylated DNA was purified by using Micro Bio-spin P-30 columns (Bio-Rad). Purified samples were mixed with 10 mL of scintillation liquid (PerkinElmer), and counted for radioactivity in a Tricarb 2910 TR scintillation counter (PerkinElmer). The values obtained in the absence of DNMT1 in the reaction were used as controls. The assay data were analyzed using GraphPad Prism for IC50 calculations. The hemimethylated DNA sequences used in the assays contained 26 bp, as follows: 26a oligo 5′-[…]-3′ [SEQ ID No. 1], and 26bm oligo 5′-ACTCATACCAAT/iMe-dC/GATACCAAGGTAG-3′ [SEQ ID No. 2], where iMe-dC is a 5-methyl-C base.
IC50 values were obtained from plots of percent inhibition versus inhibitor concentration.

Molecules are shown by their SMILES.

Chain of DNMT1 (P26358 whole entry, looked up, the tested form may be a part): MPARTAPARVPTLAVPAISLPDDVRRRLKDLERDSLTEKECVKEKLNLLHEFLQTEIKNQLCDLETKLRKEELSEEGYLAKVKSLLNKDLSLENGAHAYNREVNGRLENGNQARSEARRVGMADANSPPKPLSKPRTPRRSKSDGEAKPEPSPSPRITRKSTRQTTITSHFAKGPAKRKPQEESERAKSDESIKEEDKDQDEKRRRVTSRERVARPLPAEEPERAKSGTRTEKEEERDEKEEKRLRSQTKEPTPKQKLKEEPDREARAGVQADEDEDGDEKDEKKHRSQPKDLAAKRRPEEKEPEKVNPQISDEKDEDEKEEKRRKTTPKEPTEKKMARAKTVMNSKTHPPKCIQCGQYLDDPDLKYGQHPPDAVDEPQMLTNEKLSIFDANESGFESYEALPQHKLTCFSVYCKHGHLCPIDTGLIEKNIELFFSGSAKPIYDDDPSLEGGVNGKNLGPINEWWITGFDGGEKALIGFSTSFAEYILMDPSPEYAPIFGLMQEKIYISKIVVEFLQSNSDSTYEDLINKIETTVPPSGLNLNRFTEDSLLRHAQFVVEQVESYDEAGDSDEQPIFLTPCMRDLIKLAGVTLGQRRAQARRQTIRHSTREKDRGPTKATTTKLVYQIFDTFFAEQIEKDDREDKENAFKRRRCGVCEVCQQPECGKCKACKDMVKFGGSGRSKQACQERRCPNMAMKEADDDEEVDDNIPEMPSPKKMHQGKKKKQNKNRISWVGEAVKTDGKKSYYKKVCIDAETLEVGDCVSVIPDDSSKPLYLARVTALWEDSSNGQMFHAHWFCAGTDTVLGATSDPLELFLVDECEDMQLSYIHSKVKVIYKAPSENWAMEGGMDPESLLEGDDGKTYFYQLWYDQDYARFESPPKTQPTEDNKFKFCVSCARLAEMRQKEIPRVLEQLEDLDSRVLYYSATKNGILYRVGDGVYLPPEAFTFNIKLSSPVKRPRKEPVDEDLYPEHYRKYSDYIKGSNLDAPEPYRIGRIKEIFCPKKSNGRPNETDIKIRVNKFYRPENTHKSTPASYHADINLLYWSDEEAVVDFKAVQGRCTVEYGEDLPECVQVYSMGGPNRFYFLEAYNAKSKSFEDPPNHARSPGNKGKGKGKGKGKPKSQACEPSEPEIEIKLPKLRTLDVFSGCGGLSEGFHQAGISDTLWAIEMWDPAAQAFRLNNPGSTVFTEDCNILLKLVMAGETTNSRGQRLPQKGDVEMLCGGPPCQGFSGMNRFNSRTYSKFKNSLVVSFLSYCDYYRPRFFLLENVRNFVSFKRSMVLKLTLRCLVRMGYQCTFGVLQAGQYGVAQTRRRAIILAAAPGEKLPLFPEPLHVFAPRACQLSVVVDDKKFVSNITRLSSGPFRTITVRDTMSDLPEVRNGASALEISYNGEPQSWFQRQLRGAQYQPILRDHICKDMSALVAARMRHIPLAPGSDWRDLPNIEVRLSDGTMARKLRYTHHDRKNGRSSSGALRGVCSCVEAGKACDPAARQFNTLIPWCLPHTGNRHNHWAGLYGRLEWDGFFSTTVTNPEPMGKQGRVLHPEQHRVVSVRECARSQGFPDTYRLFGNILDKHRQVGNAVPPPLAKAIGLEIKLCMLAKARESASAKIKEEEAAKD

As to `Nc1nc(=O)n(C2C[C@H](O)[C@@H](CO)O2)cc1CCCN(CC[C@H](N)C(=O)O)C[C@H]1O[C@@H](n2cnc3c(N)ncnc32)[C@H](O)[C@@H]1O` (stereo in doubt) [Compound 33, (S)-2-amino-4-((3-(4-amino-1-((2S,4S,5R)-4-hydroxy-5-(hydroxymethyl)tetrahydrofuran-2-yl)-2-oxo-1,2-dihydropyrimidin-5-yl)propyl)(((2R,3S,4R,5R)-5-(6-amino-9H-purin-9-yl)-3,4-dihydroxytetrahydrofuran-2-yl)methyl)amino)butanoic acid], the IC50 worked out at 0.8 ± 0.1 µM.

For `Nc1nc(=O)n(C2C[C@H](O)[C@@H](CO)O2)cc1SCCN(CC[C@H](N)C(=O)O)C[C@H]1O[C@@H](n2cnc3c(N)ncnc32)[C@H](O)[C@@H]1O` (stereo in doubt) [Compound 42, (S)-2-amino-4-((2-((4-amino-1-((2S,4S,5R)-4-hydroxy-5-(hydroxymethyl)tetrahydrofuran-2-yl)-2-oxo-1,2-dihydropyrimidin-5-yl)thio)ethyl)(((2R,3S,4R,5R)-5-(6-amino-9H-purin-9-yl)-3,4-dihydroxytetrahydrofuran-2-yl)methyl)amino)butanoic acid], the IC50 was found to be 15.4 ± 6.2 µM.

In the case of `Nc1nc(=O)n(C2C[C@H](O)[C@@H](CO)O2)cc1CCN(CC[C@H](N)C(=O)O)C[C@H]1O[C@@H](n2cnc3c(N)ncnc32)[C@H](O)[C@@H]1O` (stereo in doubt) [Compound 56, (S)-2-amino-4-((2-(4-amino-1-((2S,4S,5R)-4-hydroxy-5-(hydroxymethyl)tetrahydrofuran-2-yl)-2-oxo-1,2-dihydropyrimidin-5-yl)ethyl)(((2R,3S,4R,5R)-5-(6-amino-9H-purin-9-yl)-3,4-dihydroxytetrahydrofuran-2-yl)methyl)amino)butanoic acid], the IC50 was determined as 1.9 ± 0.1 µM.

As to `Nc1nc(=O)n([C@H]2C[C@H](O)[C@@H](CO)O2)cc1CN(CC[C@H](N)C(=O)O)C[C@H]1O[C@@H](n2cnc3c(N)ncnc32)[C@H](O)[C@@H]1O` [Compound 7, (S)-2-amino-4-(((4-amino-1-((2R,4S,5R)-4-hydroxy-5-(hydroxymethyl)tetrahydrofuran-2-yl)-2-oxo-1,2-dihydropyrimidin-5-yl)methyl)(((2R,3S,4R,5R)-5-(6-amino-9H-purin-9-yl)-3,4-dihydroxytetrahydrofuran-2-yl)methyl)amino)butanoic acid], the IC50 is 0.7 ± 0.1 µM.

As to `Nc1nc(=O)n([C@H]2C[C@H](O)[C@@H](CO)O2)cc1CNCC(CC[C@H](N)C(=O)O)C[C@H]1O[C@@H](n2cnc3c(N)ncnc32)[C@H](O)[C@@H]1O` (stereo partly drawn) [Compound 70, 2-amino-5-[[[4-amino-1-[(2R,4S,5R)-4-hydroxy-5-(hydroxymethyl)tetrahydrofuran-2-yl]-2-oxo-pyrimidin-5-yl]methylamino]methyl]-6-[(2R,3S,4R,5R)-5-(6-aminopurin-9-yl)-3,4-dihydroxy-tetrahydrofuran-2-yl]hexanoic acid], the 50% inhibitory concentration (IC50) came to 2.2 ± 0.5 µM.

As to `NC1=NC(=O)N([C@H]2C[C@H](O)[C@@H](CO)O2)CN1CCCCCN(CC[C@H](N)C(=O)O)C[C@H]1O[C@@H](n2cnc3c(N)ncnc32)[C@H](O)[C@@H]1O` [Compound 86, (S)-2-amino-4-((5-(6-amino-3-((2R,4S,5R)-4-hydroxy-5-(hydroxymethyl)tetrahydrofuran-2-yl)-4-oxo-3,4-dihydro-1,3,5-triazin-1(2H)-yl)pentyl)(((2R,3S,4R,5R)-5-(6-amino-9H-purin-9-yl)-3,4-dihydroxytetrahydrofuran-2-yl)methyl)amino)butanoic acid], the IC50 worked out at 6 ± 1.8 µM.
